Values of other authors as cited in patent US20180042922A1 (priority 2016, published 2018).

Tested on: patients with PTSD
Details: RCTs

COc1cc2nc(N3CCN(C(=O)c4ccco4)CC3)nc(N)c2cc1OC [prazosin]
nightmares in patients with PTSD: decrease nightmares
